Data as given in ChEMBL document CHEMBL1201862, “PubChem BioAssay data set” (2004).
“And” between values parts separate entries of the source, which are not always exact repeats. Equal entries are not always repeated.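 Dose response: 5 concentrations. Exposure: 48 h. Format: 96-well plates. Endpoint: linear interpolation; highest concentration if not reached. Here, GI50 denotes the concentration required for 50% inhibition of growth.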 The source made the active and inactive calls. Cut-off read from the data, not from the text of the source: active = GI50 up to about 1.1 µM and inactive = higher.

Columns and labels:
Assay in all cases: DTP human tumour cell line panel, 48 h
[1] = test system: SN12C
[2] = test system: K562
[3] = test system: HCT-15
[4] = test system: HOP-92
[5] = test system: SK-MEL-5
[6] = test system: UACC-257
[7] = test system: PC-3
[8] = test system: SK-MEL-2
[9] = test system: M14
[10] = test system: SK-OV-3
[11] = test system: SF-539
[12] = test system: RPMI-8226
[13] = test system: A549
[14] = test system: HL-60
[15] = test system: NCI-H522
[16] = test system: Hs-578T
[17] = test system: NCI-H226
[18] = test system: MDA-MB-231
[19] = test system: A498

Compound	GI50 [1]	GI50 [2]	GI50 [3]	GI50 [4]	GI50 [5]	GI50 [6]	GI50 [7]	GI50 [8]	GI50 [9]	GI50 [10]	GI50 [11]	GI50 [12]	GI50 [13]	GI50 [14]	GI50 [15]	GI50 [16]	GI50 [17]	GI50 [18]	GI50 [19]
CC(C)OP(=O)(OC(C)C)C(C(F)(F)F)C(F)(F)F	> 100 µM (inactive)	> 100 µM (inactive)	> 100 µM	> 100 µM (inactive)	> 100 µM (inactive)	> 100 µM (inactive)	> 100 µM (inactive)	> 100 µM (inactive)	> 100 µM (inactive)	> 100 µM (inactive)	> 100 µM (inactive)	> 100 µM (inactive)	> 100 µM (inactive)	> 100 µM (inactive)	> 100 µM (inactive)	> 100 µM (inactive)	> 100 µM (inactive)	–	–
C=C(CCC/C(C)=C/C=C/[C@H](C)CCCc1ccoc1)C[C@@H]1OC(=O)[C@H](C)[C@@H]1O	8.79 µM (inactive)	13.7 µM (inactive)	11.4 µM	8.95 µM (inactive)	8.04 µM (inactive)	7.18 µM (inactive)	8.65 µM (inactive)	9.14 µM (inactive)	8.81 µM (inactive)	8.15 µM (inactive)	8.63 µM (inactive)	10.8 µM (inactive)	5.7 µM (inactive)	–	9.02 µM (inactive)	–	8.18 µM (inactive)	9.89 µM (inactive)	8.53 µM (inactive)
CCCCCCCCCCCCCCCCCC(=O)O[C@H](COC(=O)CCCCCCCCCCC)COC(=O)CCCCCCCCCCCCCCC	> 100 µM (inactive)	> 100 µM (inactive)	> 100 µM	> 100 µM (inactive)	> 100 µM (inactive)	> 100 µM (inactive)	–	–	> 100 µM (inactive)	> 100 µM (inactive)	–	> 100 µM (inactive)	> 100 µM (inactive)	> 100 µM (inactive)	–	–	> 100 µM (inactive)	–	> 100 µM (inactive)
CC(=O)NC(C)(C)C1CC=C(C)/C(=N\O)C1 (stereo not drawn)	> 100 µM (inactive)	> 100 µM (inactive)	> 100 µM	> 100 µM (inactive)	> 100 µM (inactive)	> 100 µM (inactive)	> 100 µM (inactive)	–	> 100 µM (inactive)	> 100 µM (inactive)	> 100 µM (inactive)	–	> 100 µM (inactive)	> 100 µM (inactive)	> 100 µM (inactive)	–	–	> 100 µM (inactive)	–
CCOC(=O)C1(C(=O)OCC)C=C(c2ccccc2)N(C2OC(COC(C)=O)C(OC(C)=O)C(OC(C)=O)C2OC(C)=O)C1=S (stereo not drawn)	> 100 µM (inactive)	–	> 100 µM	93.3 µM (inactive)	> 100 µM (inactive)	90.4 µM (inactive)	–	36.8 µM (inactive)	56.5 µM (inactive)	70.3 µM (inactive)	> 100 µM (inactive)	17 µM (inactive)	59.2 µM (inactive)	22.9 µM (inactive)	73.1 µM (inactive)	68.7 µM (inactive)	> 100 µM (inactive)	> 100 µM (inactive)	85.1 µM (inactive)
COC(=O)[C@]12CSC[C@H]1C[C@H](c1ccccc1OC)N2	> 100 µM (inactive)	> 100 µM (inactive)	> 100 µM	–	> 100 µM (inactive)	> 100 µM (inactive)	> 100 µM (inactive)	> 100 µM (inactive)	> 100 µM (inactive)	> 100 µM (inactive)	> 100 µM (inactive)	> 100 µM (inactive)	> 100 µM (inactive)	–	> 100 µM (inactive)	–	> 100 µM (inactive)	> 100 µM (inactive)	> 100 µM (inactive)
CC(=O)Nc1nnc(S(C)(=O)=O)s1	> 100 µM (inactive)	> 100 µM (inactive)	> 100 µM	> 100 µM (inactive)	–	> 100 µM (inactive)	> 100 µM (inactive)	–	> 100 µM (inactive)	–	> 100 µM (inactive)	> 100 µM (inactive)	> 100 µM (inactive)	> 100 µM (inactive)	–	–	> 100 µM (inactive)	–	> 100 µM (inactive)
O=c1[nH]ncc2[nH]c3c(c12)CCCc1ccccc1-3	63.1 µM (inactive)	12.9 µM (inactive)	28.5 µM	72.3 µM (inactive)	22.4 µM (inactive)	71.8 µM (inactive)	64.1 µM (inactive)	34.9 µM (inactive)	46.6 µM (inactive)	28.6 µM (inactive)	30.1 µM (inactive)	27.8 µM (inactive)	33.3 µM (inactive)	21.8 µM (inactive)	48.9 µM (inactive)	5.53 µM (inactive)	38.7 µM (inactive)	–	27.6 µM (inactive)
Cc1cc2oc(=O)[nH]c(=S)c2c(C)c1C	> 100 µM (inactive)	> 100 µM (inactive)	> 100 µM	> 100 µM (inactive)	–	> 100 µM (inactive)	–	> 100 µM (inactive)	> 100 µM (inactive)	> 100 µM (inactive)	> 100 µM (inactive)	> 100 µM (inactive)	> 100 µM (inactive)	> 100 µM (inactive)	> 100 µM (inactive)	–	> 100 µM (inactive)	–	> 100 µM (inactive)
CN(c1ccccc1)S(=O)(=O)c1ccc([N+](=O)[O-])cc1	> 100 µM (inactive)	–	> 100 µM	–	–	92.5 µM (inactive)	89.5 µM (inactive)	> 100 µM (inactive)	55.7 µM (inactive)	–	> 100 µM (inactive)	61.5 µM (inactive)	> 100 µM (inactive)	57 µM (inactive)	> 100 µM (inactive)	–	> 100 µM (inactive)	79.3 µM (inactive)	–
CC(=O)OC1OC(C2c3cccc(O)c3C(=O)c3c(O)cc(CO)cc32)C(O)C(O)C1O (stereo not drawn)	7.11 µM (inactive) and 5.35 µM (inactive)	3.16 µM (inactive) and 3 µM (inactive)	3.37 µM and 3.51 µM	3.1 µM (inactive)	1.53 µM (inactive) and 1.68 µM (inactive)	6.47 µM (inactive) and 7.45 µM (inactive)	3.01 µM (inactive) and 2.32 µM (inactive)	2.32 µM (inactive) and 2.74 µM (inactive)	10.5 µM (inactive) and 9.42 µM (inactive)	4.14 µM (inactive) and 2.62 µM (inactive)	2 µM (inactive) and 1.95 µM (inactive)	–	2.8 µM (inactive) and 5.56 µM (inactive)	2.32 µM (inactive) and 2 µM (inactive)	4.51 µM (inactive) and 2.91 µM (inactive)	2.31 µM (inactive) and 2.22 µM (inactive)	–	–	6.34 µM (inactive)
S=C(c1c[nH]c2ccccc12)N1CCOCC1	> 100 µM (inactive)	> 100 µM (inactive)	> 100 µM	–	> 100 µM (inactive)	> 100 µM (inactive)	> 100 µM (inactive)	> 100 µM (inactive)	> 100 µM (inactive)	> 100 µM (inactive)	> 100 µM (inactive)	> 100 µM (inactive)	–	> 100 µM (inactive)	–	22.3 µM (inactive)	24.6 µM (inactive)	> 100 µM (inactive)	> 100 µM (inactive)
COc1nc(C#CC(C)(C)C)nc(OC)n1	21.9 µM (inactive)	38 µM (inactive)	20.8 µM	–	16 µM (inactive)	48.3 µM (inactive)	31 µM (inactive)	30.3 µM (inactive)	36.6 µM (inactive)	55 µM (inactive)	28.8 µM (inactive)	–	25.4 µM (inactive)	25.8 µM (inactive)	23.9 µM (inactive)	30.8 µM (inactive)	–	20.9 µM (inactive)	41.9 µM (inactive)
Cc1ccc2c(=O)cc(Cc3cccs3)[nH]c2n1	> 100 µM (inactive)	> 100 µM (inactive)	> 100 µM	–	> 100 µM (inactive)	> 100 µM (inactive)	> 100 µM (inactive)	> 100 µM (inactive)	> 100 µM (inactive)	> 100 µM (inactive)	–	> 100 µM (inactive)	> 100 µM (inactive)	> 100 µM (inactive)	> 100 µM (inactive)	> 100 µM (inactive)	> 100 µM (inactive)	> 100 µM (inactive)	–
COc1cc2c(cc1OC)[C@H]1C(COC(=O)Nc3ccccc3)CN1CC2 (stereo partly drawn)	> 100 µM (inactive)	> 100 µM (inactive)	> 100 µM	69.3 µM (inactive)	53.8 µM (inactive)	–	–	> 100 µM (inactive)	53.8 µM (inactive)	> 100 µM (inactive)	> 100 µM (inactive)	> 100 µM (inactive)	> 100 µM (inactive)	> 100 µM (inactive)	> 100 µM (inactive)	–	–	–	70.6 µM (inactive)
CCOP(=O)(OCC)C(Nc1ccc(Cl)cc1)c1ccc(F)cc1 (stereo not drawn)	18.4 µM (inactive)	25.5 µM (inactive)	26.7 µM	22 µM (inactive)	17.3 µM (inactive)	18.5 µM (inactive)	–	14.6 µM (inactive)	16.6 µM (inactive)	41.7 µM (inactive)	22 µM (inactive)	22.5 µM (inactive)	31 µM (inactive)	18.6 µM (inactive)	20.3 µM (inactive)	20.8 µM (inactive)	25.8 µM (inactive)	21.2 µM (inactive)	18.5 µM (inactive)
CC(C)(C)C1CCC(=O)/C(=C/CC2CC(=O)N(c3ccccc3)C(=O)C2)C1 (stereo not drawn)	17.5 µM (inactive)	19.5 µM (inactive)	15.5 µM	–	16.4 µM (inactive)	14.7 µM (inactive)	27.5 µM (inactive)	19.4 µM (inactive)	–	–	–	18.7 µM (inactive)	–	26.8 µM (inactive)	18.9 µM (inactive)	33.1 µM (inactive)	16.1 µM (inactive)	44 µM (inactive)	24.5 µM (inactive)
